Measurements reported in patent publication US20190127366A1 (LifeSci Pharmaceuticals, Inc., priority 2015, published 2019).

Target: T1, human complement factor D (Homo sapiens, UniProt P00746)
T1 construct: purchased R&D Systems 1824-SE
Assay: In vitro enzyme inhibition (Z-Lys-SBzl/DTNB absorbance assay)
Type: biochemical
Details: Complement Factor D (R&D Systems), substrate Z-Lys-SBzl, A405 nm; read-out: CFD IC50
Outline: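 Factor D (6.25 ng/μL before addition) preincubated 5 min RT with compound (8 points from 50 μM, 6-fold, 0.5% DMSO final) in 50 mM Tris/HCl pH 7.5, 1 M NaCl, then Z-Lys-SBzl/DTNB added (200 μM each before addition). A405 read kinetically every 30 s for 60 min; IC50 from variable-slope fit, controls with and without enzyme.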

T1 sequence (P00746 26-253): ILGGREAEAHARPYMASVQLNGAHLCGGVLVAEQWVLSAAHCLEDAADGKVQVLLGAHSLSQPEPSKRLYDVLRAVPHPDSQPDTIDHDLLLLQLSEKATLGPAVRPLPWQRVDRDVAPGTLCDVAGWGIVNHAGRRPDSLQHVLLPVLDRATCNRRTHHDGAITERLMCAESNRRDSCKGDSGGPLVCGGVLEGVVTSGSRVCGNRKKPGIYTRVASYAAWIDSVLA

| IC50 | SMILES |
| --- | --- |
| 1000 to 10000 nM | NC(=O)Cc1ccc2c(C(N)=O)nn(CC(=O)N3[C@@H]4CC[C@@H](C4)[C@H]3C(=O)NCc3cccc(Cl)c3F)c2c1 [Example 128, 6-(2-amino-2-oxoethyl)-1-(2-((1R,3S,4S)-3-((3-chloro-2-fluorobenzyl)carbamoyl)-2-azabicyclo[2.2.1]heptan-2-yl)-2-oxoethyl)-1H-indazole-3-carboxamide] |
| 1000 to 10000 nM | NC(=O)c1nn(CC(=O)N2CCOC[C@H]2C(=O)Nc2cccc(C(F)(F)F)n2)c2ccccc12 [Example 23, (S)-4-(2-(3-carbamoyl-1H-indazol-1-yl)acetyl)-N-(6-(trifluoromethyl)pyridin-2-yl)morpholine-3-carboxamide] |
| 100 to 1000 nM | NC(=O)c1nn(CC(=O)N2[C@@H]3CC[C@@H](C3)[C@H]2C(=O)Nc2cccc(C(F)(F)F)n2)c2cnccc12 [Example 9, 1-(2-oxo-2-((1R,3S,4S)-3-((6-(trifluoromethyl)pyridin-2-yl)carbamoyl)-2-azabicyclo[2.2.1]heptan-2-yl)ethyl)-1H-pyrazolo[3,4-c]pyridine-3-carboxamide] |
| 1000 to 10000 nM | COC(=O)c1cc(Cl)c(F)c(CNC(=O)[C@@H]2[C@H]3CC[C@H](C3)N2C(=O)Cn2nc(C(N)=O)c3ccccc32)c1 [Example 110, methyl 3-(((1R,3S,4S)-2-(2-(3-carbamoyl-1H-indazol-1-yl)acetyl)-2-azabicyclo[2.2.1]heptane-3-carboxamido)methyl)-5-chloro-4-fluorobenzoate] |
| 100 to 1000 nM | CC(=O)c1nn(CC(=O)N2[C@@H]3CC[C@@H](C3)[C@H]2C(=O)Nc2cccc(Cl)n2)c2ccc(F)cc12 [Example 91, (1R,3S,4S)-2-(2-(3-acetyl-5-fluoro-1H-indazol-1-yl)acetyl)-N-(6-chloropyridin-2-yl)-2-azabicyclo[2.2.1]heptane-3-carboxamide] |
| 1000 to 10000 nM | NC(=O)c1cc(Cl)c(F)c(CNC(=O)[C@@H]2[C@H]3CC[C@H](C3)N2C(=O)Cn2nc(C(N)=O)c3ccccc32)c1 [Example 112, 1-(2-((1R,3S,4S)-3-((5-carbamoyl-3-chloro-2-fluorobenzyl)carbamoyl)-2-azabicyclo[2.2.1]heptan-2-yl)-2-oxoethyl)-1H-indazole-3-carboxamide] |
| 1000 to 10000 nM | NC(=O)c1nn(CC(=O)N2[C@H](C(=O)Nc3cccc(Cl)n3)C[C@@H]3CCC[C@@H]32)c2ccc([N+](=O)[O-])cc12 [Example 173, 1-(2-((2S,3aS,6aS)-2-((6-chloropyridin-2-yl)carbamoyl)hexahydrocyclopenta[b]pyrrol-1(2H)-yl)-2-oxoethyl)-5-nitro-1H-indazole-3-carboxamide] |
| 1000 to 10000 nM | COC(=O)c1nn(CC(=O)N2[C@@H]3CC[C@@H](C3)[C@H]2C(=O)Nc2cccc(Cl)n2)c2ccccc12 [Example 82, methyl 1-(2-((1R,3S,4S)-3-((6-chloropyridin-2-yl)carbamoyl)-2-azabicyclo[2.2.1]heptan-2-yl)-2-oxoethyl)-1H-indazole-3-carboxylate] |
| 100 to 1000 nM | Cc1ccc2c(c1)c(C(N)=O)nn2CC(=O)N1[C@H](C(=O)NCc2cccc(Cl)c2F)C[C@@H]2CCC[C@@H]21 [Example 165, 1-(2-((2S,3aS,6aS)-2-((3-chloro-2-fluorobenzyl)carbamoyl)hexahydrocyclopenta[b]pyrrol-1(2H)-yl)-2-oxoethyl)-5-methyl-1H-indazole-3-carboxamide] |
| 1000 to 10000 nM | NC(=O)c1nn(CC(=O)N2[C@H](CO)C[C@H]2C(=O)NCc2cccc(Cl)c2F)c2ccccc12 [Example 197, 1-(2-(trans-2-((3-chloro-2-fluorobenzyl)carbamoyl)-4-(hydroxymethyl)azetidin-1-yl)-2-oxoethyl)-1H-indazole-3-carboxamide] |
| > 10000 nM | NC(=O)c1nn(CC(=O)N2[C@@H]3CC[C@@H](C3)[C@H]2C(=O)Nc2ncccc2Cl)c2ccccc12 [Example 54, 1-(2-((1R,3S,4S)-3-((3-chloropyridin-2-yl)carbamoyl)-2-azabicyclo[2.2.1]heptan-2-yl)-2-oxoethyl)-1H-indazole-3-carboxamide] |
| 100 to 1000 nM | NC(=O)c1nn(CC(=O)N2[C@@H]3CC[C@@H](C3)[C@H]2C(=O)Nc2ccc(Cl)c(Cl)n2)c2ccccc12 [Example 76, 1-(2-((1R,3S,4S)-3-((5,6-dichloropyridin-2-yl)carbamoyl)-2-azabicyclo[2.2.1]heptan-2-yl)-2-oxoethyl)-1H-indazole-3-carboxamide] |
| 1000 to 10000 nM | NC(=O)c1nn(CC(=O)N2[C@H]3CC[C@H](C3)[C@H]2C(=O)Nc2cccc(Cl)n2)c2ccc(Cl)cc12 [Example 16, 5-chloro-1-(2-((1S,3S,4R)-3-((6-chloropyridin-2-yl)carbamoyl)-2-azabicyclo[2.2.1]heptan-2-yl)-2-oxoethyl)-1H-indazole-3-carboxamide] |
| 100 to 1000 nM | NC(=O)c1nn(CC(=O)N2[C@H](C(=O)NCc3cccc(Cl)c3F)C[C@@H]3CCC[C@@H]32)c2ccc(C3CC3)cc12 [Example 199, 1-(2-((2S,3aS,6aS)-2-((3-chloro-2-fluorobenzyl)carbamoyl)hexahydrocyclopenta[b]pyrrol-1(2H)-yl)-2-oxoethyl)-5-cyclopropyl-1H-indazole-3-carboxamide] |
| > 10000 nM | NCC(NC(=O)[C@@H]1[C@H]2CC[C@H](C2)N1C(=O)Cn1nc(C(N)=O)c2ccccc21)c1cccc(Cl)c1F (stereo partly drawn) [Example 140, 1-(2-((1R,3S,4S)-3-((2-amino-1-(3-chloro-2-fluorophenyl)ethyl)carbamoyl)-2-azabicyclo[2.2.1]heptan-2-yl)-2-oxoethyl)-1H-indazole-3-carboxamide] |
| 1000 to 10000 nM | NC(=O)c1nn(CC(=O)N2C3CCC(C3)[C@H]2C(=O)Nc2cccc(C(F)(F)F)n2)c2ccc(C3CC3)cc12 (stereo partly drawn) [Example 14, 5-cyclopropyl-1-(2-oxo-2-((3S)-3-((6-(trifluoromethyl)pyridin-2-yl)carbamoyl)-2-azabicyclo[2.2.1]heptan-2-yl)ethyl)-1H-indazole-3-carboxamide] |
| 100 to 1000 nM | CC(=O)c1nn(CC(=O)N2[C@H](C(=O)Nc3cccc(Cl)n3)C[C@@H]3CCC[C@@H]32)c2ccccc12 [Example 180, (2S,3aS,6aS)-1-(2-(3-acetyl-1H-indazol-1-yl)acetyl)-N-(6-chloropyridin-2-yl)octahydrocyclopenta[b]pyrrole-2-carboxamide] |
| 100 to 1000 nM | NC(=O)n1nc(CC(=O)N2[C@@H]3CC[C@@H](C3)[C@H]2C(=O)NCc2cccc(Cl)c2F)c2ccccc21 [Example 100, 3-(2-((1R,3S,4S)-3-((3-chloro-2-fluorobenzyl)carbamoyl)-2-azabicyclo[2.2.1]heptan-2-yl)-2-oxoethyl)-1H-indazole-1-carboxamide] |
| > 10000 nM | NC(=O)c1nn(CC(=O)N2[C@@H]3CC[C@@H](C3)[C@H]2C(=O)Nc2cc(C(F)(F)F)ccn2)c2ccccc12 [Example 55, 1-(2-oxo-2-((1R,3S,4S)-3-((4-(trifluoromethyl)pyridin-2-yl)carbamoyl)-2-azabicyclo[2.2.1]heptan-2-yl)ethyl)-1H-indazole-3-carboxamide] |
| 1000 to 10000 nM | NC(=O)c1nn(CC(=O)N2[C@@H]3CC[C@@H](C3)[C@H]2C(=O)NCc2cccc(Cl)c2F)c2cc(CCO)ccc12 [Example 129, 1-(2-((1R,3S,4S)-3-((3-chloro-2-fluorobenzyl)carbamoyl)-2-azabicyclo[2.2.1]heptan-2-yl)-2-oxoethyl)-6-(2-hydroxyethyl)-1H-indazole-3-carboxamide] |
| 100 to 1000 nM | N#Cc1ccc2c(c1)c(C(N)=O)nn2CC(=O)N1[C@H](C(=O)Nc2cccc(Cl)n2)C[C@@H]2CCC[C@@H]21 [Example 174, 1-(2-((2S,3aS,6aS)-2-((6-chloropyridin-2-yl)carbamoyl)hexahydrocyclopenta[b]pyrrol-1(2H)-yl)-2-oxoethyl)-5-cyano-1H-indazole-3-carboxamide] |
| 1000 to 10000 nM | CC(O)c1nn(CC(=O)N2[C@H](C(=O)Nc3cccc(Cl)n3)C[C@@H]3CCC[C@@H]32)c2ccccc12 (stereo partly drawn) [Example 181, (2S,3aS,6aS)-N-(6-chloropyridin-2-yl)-1-(2-(3-(1-hydroxyethyl)-1H-indazol-1-yl)acetyl)octahydrocyclopenta[b]pyrrole-2-carboxamide] |
| > 10000 nM | NC(=O)c1nn(CC(=O)N2CCNC[C@H]2C(=O)Nc2cccc(C(F)(F)F)n2)c2ccccc12 [Example 29, (S)-1-(2-oxo-2-(2-((6-(trifluoromethyl)pyridin-2-yl)carbamoyl)piperazin-1-yl)ethyl)-1H-indazole-3-carboxamide] |
| 100 to 1000 nM | Cc1ccc(NC(=O)[C@@H]2[C@H]3CC[C@H](C3)N2C(=O)Cn2nc(C(N)=O)c3ccccc32)nc1Cl [Example 68, 1-(2-((1R,3S,4S)-3-((6-chloro-5-methylpyridin-2-yl)carbamoyl)-2-azabicyclo[2.2.1]heptan-2-yl)-2-oxoethyl)-1H-indazole-3-carboxamide 2,2,2-trifluoroacetate] |
| 1000 to 10000 nM | NC(=O)c1nn(CC(=O)N2[C@@H]3CC[C@@H](C3)[C@H]2C(=O)NC(CO)c2cccc(Cl)c2F)c2ccccc12 (stereo partly drawn) [Example 138, 1-(2-((1R,3S,4S)-3-((1-(3-chloro-2-fluorophenyl)-2-hydroxyethyl)carbamoyl)-2-azabicyclo[2.2.1]heptan-2-yl)-2-oxoethyl)-1H-indazole-3-carboxamide] |
| > 10000 nM | NC(=O)c1nn(CC(=O)N2[C@H]3CC[C@H]([C@H](O)C3)[C@@H]2C(=O)NCc2cccc(Cl)c2F)c2ccccc12 [Example 153, (1S,3R,4S,5R)-2-(2-(3-carbamoyl-1H-indazol-1-yl)acetyl)-N-(3-chloro-2-fluorobenzyl)-5-hydroxy-2-azabicyclo[2.2.2]octane-3-carboxamide] |
| 1000 to 10000 nM | NC(=O)c1nn(CC(=O)N2[C@@H]3CC[C@@H](C3)[C@H]2C(=O)Nc2cncc(Cl)c2)c2ccccc12 [Example 58, 1-(2-((1R,3S,4S)-3-((5-chloropyridin-3-yl)carbamoyl)-2-azabicyclo[2.2.1]heptan-2-yl)-2-oxoethyl)-1H-indazole-3-carboxamide] |
